± gives the expanded uncertainty stated by the source.
Tests used:
[1] = Crystal; DTA
[2] = Molar enthalpy of transition or fusion; conditions: Crystal; DSC

Normal melting temperature [1]: 57.01 ± 0.39 °C
Molar enthalpy of transition or fusion [2]: 3.91 ± 0.108 kcal/mol
Structure (SMILES): CCCCn1cc[n+](C)c1.Cc1ccc(S(=O)(=O)[O-])cc1 [1-butyl-3-methylimidazolium tosylate]
